Here are results for seven molecules from ChEMBL document CHEMBL5150064 (J Med Chem, 2022).

Data set [1] deals with T1, Phosphatidylinositol 4,5-bisphosphate 3-kinase catalytic subunit delta isoform (Homo sapiens) (UniProt O00329).
T1 sequence (whole entry): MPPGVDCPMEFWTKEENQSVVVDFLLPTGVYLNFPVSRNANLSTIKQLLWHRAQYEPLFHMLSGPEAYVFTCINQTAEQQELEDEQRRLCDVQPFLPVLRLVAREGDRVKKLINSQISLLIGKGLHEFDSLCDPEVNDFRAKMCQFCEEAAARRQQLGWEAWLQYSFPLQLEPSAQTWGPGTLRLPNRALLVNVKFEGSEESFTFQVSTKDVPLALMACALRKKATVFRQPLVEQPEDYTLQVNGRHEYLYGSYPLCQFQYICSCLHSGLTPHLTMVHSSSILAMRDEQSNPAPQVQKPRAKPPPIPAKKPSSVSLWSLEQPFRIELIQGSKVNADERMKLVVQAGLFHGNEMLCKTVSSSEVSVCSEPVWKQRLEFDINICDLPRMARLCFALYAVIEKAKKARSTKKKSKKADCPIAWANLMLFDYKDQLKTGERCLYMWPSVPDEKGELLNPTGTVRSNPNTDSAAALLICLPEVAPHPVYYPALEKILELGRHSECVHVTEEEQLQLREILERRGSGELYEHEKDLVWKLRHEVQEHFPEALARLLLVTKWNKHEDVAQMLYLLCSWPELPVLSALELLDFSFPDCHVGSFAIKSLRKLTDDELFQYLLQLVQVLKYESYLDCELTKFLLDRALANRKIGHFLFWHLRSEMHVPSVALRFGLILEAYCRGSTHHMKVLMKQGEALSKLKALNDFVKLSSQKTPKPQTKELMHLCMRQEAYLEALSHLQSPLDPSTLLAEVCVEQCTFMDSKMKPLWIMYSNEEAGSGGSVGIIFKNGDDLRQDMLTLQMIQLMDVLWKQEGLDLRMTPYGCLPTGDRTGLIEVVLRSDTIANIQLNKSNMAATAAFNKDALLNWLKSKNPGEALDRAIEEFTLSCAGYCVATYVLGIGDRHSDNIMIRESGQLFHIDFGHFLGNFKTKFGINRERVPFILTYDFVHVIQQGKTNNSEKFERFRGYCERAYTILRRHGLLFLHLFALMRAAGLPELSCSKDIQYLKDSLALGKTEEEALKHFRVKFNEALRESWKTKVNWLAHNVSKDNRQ
Put plainly: Inhibition of PI3Kdelta in human B-cells assessed as reduction in CD69 expression preincubated for 1 hr followed by IgM stimulation for 18 hrs by flow cytometry analysis. The data set is classed as cell-based. The settings on record: B-cell.

Data set [2] in a line: Lipophilicity, logD of compound in 1-Octanol/PBS at pH 7.4 by LC-MS/MS method. The format is physicochemical.
A short description of data set [3]: Apparent permeability across apical to basolateral side in MDCK cells at 10 uM measured upto 180 mins by LC-MS/MS method. As to conditions: dog. The format is ADME, cell-based, Canis lupus familiaris.
A short description of data set [4]: Oral bioavailability in Sprague-Dawley rat plasma at 5 mg/kg measured upto 8 hrs by LC-MS/MS method. The format is ADME, organism-based.
Data set [5] relates to Phosphatidylinositol 4,5-bisphosphate 3-kinase catalytic subunit alpha isoform (Homo sapiens), P42336 [H1047R]. Kind of data set: Induction of P110alpha H1047R mutant degradation in human HCC1954 cells at 0.012 to 1 uM after 24 hrs. The format is cell-based. The settings on record: dose 0.012-1 µM.
Data set [6] can be described thus: Clearance in Sprague-Dawley rat plasma at 1 mg/kg, iv measured upto 8 hrs by LC-MS/MS analysis. The format is ADME, organism-based.
For data set [7], the target named is Phosphatidylinositol 4,5-bisphosphate 3-kinase catalytic subunit alpha isoform (Homo sapiens, UniProt P42336, H1047R).
For data set [8], the species on record is Homo sapiens. Put plainly: Selectivity ratio of EC50 for PI3Kalpha H1047R mutant in human HCC1954 cells assessed as reduction in PRAS40 phosphorylation to EC50 for wild type PI3Kalpha in human HDQ-P1 cells assessed as reduction in PRAS40 phosphorylation. The format is cell-based.
Data set [9] is described as follows: Oral bioavailability in Sprague-Dawley rat plasma at 3 mg/kg measured upto 8 hrs by LC-MS/MS method. The data set is classed as ADME, organism-based.
The target in data set [10] is T2, Phosphatidylinositol 4,5-bisphosphate 3-kinase catalytic subunit alpha isoform (Homo sapiens, UniProt P42336). Kind of data set: Inhibition of PI3Kalpha (unknown origin) using PIP2:3PS as substrate in presence of ATP measured after 120 mins by ADP-Glo assay. On the technique in general: ADP-Glo first removes unused ATP, then detects ADP through luciferase.
The species entered for data set [11] is Homo sapiens. Put plainly: Selectivity ratio of Ki for PI3Kdelta (unknown origin) to Ki for PI3Kalpha (unknown origin).
Data set [12] can be described thus: Kinetic solubility of the compound at pH 7.4. The format is physicochemical. The settings on record: buffer, read-out: Kinetic_solubility.
For data set [13], the system named is Phosphatidylinositol 4,5-bisphosphate 3-kinase catalytic subunit alpha isoform (Homo sapiens), P42336 [H1047R]. Put plainly: Inhibition of PI3Kalpha H1047R mutant in human HCC1954 cells assessed as reduction in PRAS40 phosphorylation after 24 hrs by electrochemiluminescent assay.
The target in data set [14] is T2, Phosphatidylinositol 4,5-bisphosphate 3-kinase catalytic subunit alpha isoform. Put plainly: Inhibition of PI3Kalpha in human HDQ-P1 cells assessed as reduction in PRAS40 phosphorylation after 24 hrs by electrochemiluminescent assay. The format is cell-based.
The species named for data set [15] is Homo sapiens. Put plainly: Selectivity ratio of IC90 for inhibition of PI3Kdelta in human B-cells assessed as reduction in CD69 expression to EC50 for inhibition of PI3Kalpha H1047R mutant in human HCC1954 cells. The format is cell-based.

≈ marks a conversion by molar mass, not a printed value. Calls of active or inactive are those of the source. No cut-off for these calls is given here.

Chain of Phosphatidylinositol 4,5-bisphosphate 3-kinase catalytic subunit alpha isoform (Homo sapiens, UniProt P42336, H1047R) (P42336 whole entry H1047R, canonical isoform): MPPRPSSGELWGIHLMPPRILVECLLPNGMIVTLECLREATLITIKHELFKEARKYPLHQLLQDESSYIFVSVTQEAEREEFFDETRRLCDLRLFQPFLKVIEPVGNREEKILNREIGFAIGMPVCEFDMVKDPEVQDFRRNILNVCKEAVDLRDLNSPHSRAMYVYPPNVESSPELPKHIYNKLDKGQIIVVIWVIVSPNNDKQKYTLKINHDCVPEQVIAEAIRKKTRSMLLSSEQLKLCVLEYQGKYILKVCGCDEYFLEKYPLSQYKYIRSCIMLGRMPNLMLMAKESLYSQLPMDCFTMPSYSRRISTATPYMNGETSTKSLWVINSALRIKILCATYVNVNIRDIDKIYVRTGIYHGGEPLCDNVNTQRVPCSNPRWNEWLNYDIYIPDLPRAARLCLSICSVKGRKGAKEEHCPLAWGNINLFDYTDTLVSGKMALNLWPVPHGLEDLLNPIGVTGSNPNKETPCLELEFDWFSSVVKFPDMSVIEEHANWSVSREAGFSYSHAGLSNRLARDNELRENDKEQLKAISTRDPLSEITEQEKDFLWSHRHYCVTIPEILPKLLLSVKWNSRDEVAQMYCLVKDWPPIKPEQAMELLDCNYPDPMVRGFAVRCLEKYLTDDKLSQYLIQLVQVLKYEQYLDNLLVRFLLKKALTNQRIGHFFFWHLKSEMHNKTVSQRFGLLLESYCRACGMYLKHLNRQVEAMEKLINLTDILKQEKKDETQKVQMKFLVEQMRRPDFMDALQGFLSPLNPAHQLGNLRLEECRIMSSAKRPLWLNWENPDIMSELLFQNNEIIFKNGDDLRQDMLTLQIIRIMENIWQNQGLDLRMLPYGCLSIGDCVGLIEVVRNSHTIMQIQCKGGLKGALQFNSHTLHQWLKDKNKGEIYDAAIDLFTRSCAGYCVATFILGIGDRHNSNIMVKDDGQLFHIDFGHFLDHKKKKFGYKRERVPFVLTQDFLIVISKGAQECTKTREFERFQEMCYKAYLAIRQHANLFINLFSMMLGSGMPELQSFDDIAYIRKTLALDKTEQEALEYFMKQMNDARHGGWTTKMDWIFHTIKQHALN
Chain of Phosphatidylinositol 4,5-bisphosphate 3-kinase catalytic subunit alpha isoform (Homo sapiens), P42336 [H1047R] (P42336 whole entry H1047R, canonical isoform): as above
T2 sequence (P42336 whole entry, canonical isoform): as the sequence (P42336 whole entry H1047R, canonical isoform) above, with R1047H counted along it

For orientation: IC90 means the concentration at which the effect reaches the 90% level. Broadly, the logD is lipophilicity at a set pH, counting ionised and neutral species. A low value points to lower lipophilicity. For `Cc1nc(-c2cn3c(n2)-c2ccc(-c4cnn(C(C)(C)C(N)=O)c4)cc2OCC3)n(C(C)C)n1` [TASELISIB], the IC90 in data set [1] was 3.1 nM. This molecule returned a logD in data set [2] of 2.3.

One may read the Papp A→B as the apparent permeability from the apical to the basolateral side of a cell layer. As a reminder, the bioavailability is dose-corrected exposure relative to a reference, in per cent. The low end stands for little systemic uptake, the high end for much systemic uptake. The clearance is a measure of how efficiently the substance is removed, as volume per time. A higher clearance goes with a high capacity for elimination. As usually defined, the EC50 is the concentration giving half of the maximal effect. Turning to `NC(=O)[C@@H](Nc1ccc2c(c1)OCCn1cc(N3C(=O)OC[C@H]3C(F)F)nc1-2)C1CC1`, in data set [3], the Papp A→B at 3 h, 10 µM came to 3.2 ×10⁻⁶ cm/s. The molecule also displayed a bioavailability in data set [4] of 41%. In addition, in data set [5], the outcome was Active. In addition, the IC90 in data set [1] came out at 307 nM. The clearance in data set [6] worked out at 67 mL/min/kg. The molecule also yielded an EC50 in data set [7] of 28 nM. Moreover, the logD in data set [2] was 1.2.

For orientation: Ki means a measure of affinity in units of concentration, obtained from inhibition or displacement. On to `NC(=O)[C@@H](Nc1ccc2c(c1)OCCn1cc(N3C(=O)OC[C@H]3C(F)(F)F)nc1-2)C1CC1`, for which the Papp A→B at 3 h, 10 µM in [3] worked out at 1.1 ×10⁻⁶ cm/s. In addition, the Ratio EC50 in data set [8] is 1.1. For the same molecule, the bioavailability in data set [9] was found to be 98%. The molecule further yielded a clearance in data set [6] of 94 mL/min/kg. Besides, the Ki in data set [10] worked out at 0.1 nM. The molecule also showed an EC50 in [7] of 52 nM. Moreover, the Ratio Ki in data set [11] was determined as 285. The logD in data set [2] stood at 1.2.

With `NC(=O)[C@@H]1CCCN1c1ccc2c(c1)OCCn1cc(N3C(=O)OC[C@H]3CF)nc1-2`, the Papp A→B at 3 h, 10 µM in data set [3] was found to be 2.6 ×10⁻⁶ cm/s. In data set [5], the outcome was Active. In addition, the solubility kinetic in data set [12] came to 159 µM (≈ 66.1 µg/mL). For the same molecule, the Ratio Ki in data set [11] was determined as 46. For the same molecule, in data set [13], the inhibition entry is “Active”. This molecule yielded a logD in data set [2] of 0.8.

Turning to `NC(=O)[C@@H]1CCCN1c1ccc2c(c1)OCCn1cc(N3CC[C@H](O)C3=O)nc1-2`, the Papp A→B at 3 h, 10 µM in data set [3] was found to be 0.3 ×10⁻⁶ cm/s. In [4], this molecule gave a bioavailability of 9%. The Ratio EC50 in data set [8] is 5.2. For the same molecule, the solubility kinetic in data set [12] is 143 µM (≈ 56.8 µg/mL). For the same molecule, the EC50 in data set [14] was 327 nM; in data set [7], 63 nM. Besides, the clearance in [6] worked out at 27 mL/min/kg. In data set [10], the Ki was 0.355 nM. Further, the Ratio Ki in data set [11] was 13. In data set [2], the logD worked out at 0.4.

For the molecule `CC(C)n1ncnc1-c1cn2c(n1)-c1ccc(O[C@@H](C)C(N)=O)cc1OCC2`, the IC90 in [1] amounted to 147 nM. In addition, the logD in [2] is 1.9.

In the case of `NC(=O)[C@@H]1CCCN1c1ccc2c(c1)OCCn1cc(N3C(=O)OC[C@H]3C(F)F)nc1-2`, in data set [3], the Papp A→B at 3 h, 10 µM is 4.3 ×10⁻⁶ cm/s. In [4], this molecule came in with a bioavailability of 35%. Further, the outcome in data set [5] was Active. Further, the solubility kinetic in data set [12] was 11 µM (≈ 4.77 µg/mL). Also, the 90% effect concentration (IC90) in data set [1] was 103 nM. The Selectivity ratio in [15] came out at 6.4. Also, the clearance in data set [6] is 41 mL/min/kg. The Ratio Ki in data set [11] was found to be 34. Further, the inhibition result in data set [13] was “Active”. The same molecule showed a logD in data set [2] of 1.3.
